Assay results published in patent publication US8623593B1, “GPR 17 agonists and screening assay” (Rheinische Friedrich-Wilhelms-Universität Bonn, priority 2011, dated 2014).

Experiments:
GPR17 [1] = biological target: T1, GPR17 (Homo sapiens, UniProt Q13304); test: inhibition of forskolin-stimulated cAMP production in CHO-GPR17 cells; format: cell-based; design: expressed in transfected cells; host or cells: Flp-In T-REx CHO cells, expression induced with doxycycline; conditions: for activation of GPR17: comparison with RA-II-150, FIG. 2
Excerpt: Two signal transduction pathways that influence the activity of the adenylyl cyclase in oppositional ways can be activated upon receptor activation. Whereas the Gs pathway stimulates the adenylyl cyclase-dependent catalysation of cAMP formation, the Gi pathway inhibits it. The detection of cAMP accumulation is based on the HTRF® technology described above. In this case a monoclonal antibody specific to cAMP was the donor fluorophore while the acceptor fluorophore d2 was fused to cAMP. The analysis of the Gi pathway was based on the direct activation of the adenylyl cyclase, for example, by forskolin. Upon activation, the Gi pathway inhibits the forskolin-dependent activation of the adenylyl cyclase, leading to decreased cAMP accumulation. The inhibition of forskolin-stimulated cAMP accumulation in 1321N1 or CHO cells was performed using the HTRF® cAMP dynamic kit (Cisbio Bioassays, BP 84175, France). Cells were resuspended in assay buffer with 1 mM 3-isobutyl-1-methylxanthine (IBMX) supplemented and dispensed in 384-well microplates at a density of 50,000 cells/well in a volume of 5 μl. After preincubation in assay buffer for 30 min, the cells were stimulated by adding 5 μl of agonist in the respective concentration of forskolin. The final concentration of forskolin was dependent on the cell line which was employed in the assay. Adenylyl cyclase was stimulated with 1 μM forskolin in 1321N1-GPR17 cells and with 10 μM forskolin in CHO-GPR17 cells, followed by incubation for 30 min at room temperature. The reaction was terminated by lysis of the cells, which results from the addition of 5 μl of d2-conjugate followed by the addition of 5 μl of […] (both supplements are diluted in conjugate and lysis buffer). The assay was incubated for 60 min at room temperature and time-resolved FRET signals were measured at an excitation wavelength of 320 nm using the Mithras LB 940 multimode reader (Berthold technologies, D-75323 Bad Wildbad). The evaluation of HTRFR data was performed following the instructions of the kit manufacturer. Data analysis was based on the fluorescence ratio emitted by labeled cAMP (665 nm) over the light emitted by the europium cryptate-labelled anti-cAMP (620 nm). Levels of cAMP were normalised to the amount of cAMP elevated by 10 μM or 1 μM forskolin alone.
Target sequence in this assay (Q13304 29-367): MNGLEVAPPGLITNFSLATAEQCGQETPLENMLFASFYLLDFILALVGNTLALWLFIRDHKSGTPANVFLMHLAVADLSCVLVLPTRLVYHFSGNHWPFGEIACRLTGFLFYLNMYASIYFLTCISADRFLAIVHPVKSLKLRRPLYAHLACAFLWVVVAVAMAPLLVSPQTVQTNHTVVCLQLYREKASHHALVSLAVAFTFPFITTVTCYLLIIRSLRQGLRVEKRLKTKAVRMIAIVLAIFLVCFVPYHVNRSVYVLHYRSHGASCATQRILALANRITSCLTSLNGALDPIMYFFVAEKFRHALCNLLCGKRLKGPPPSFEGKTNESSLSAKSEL

GPR17 [2] = biological target: T1, GPR17; conditions: reported in WO 2005/103291; cited from earlier work
Target sequence in this assay (Q13304 whole entry, species assumed, the tested form may be a part): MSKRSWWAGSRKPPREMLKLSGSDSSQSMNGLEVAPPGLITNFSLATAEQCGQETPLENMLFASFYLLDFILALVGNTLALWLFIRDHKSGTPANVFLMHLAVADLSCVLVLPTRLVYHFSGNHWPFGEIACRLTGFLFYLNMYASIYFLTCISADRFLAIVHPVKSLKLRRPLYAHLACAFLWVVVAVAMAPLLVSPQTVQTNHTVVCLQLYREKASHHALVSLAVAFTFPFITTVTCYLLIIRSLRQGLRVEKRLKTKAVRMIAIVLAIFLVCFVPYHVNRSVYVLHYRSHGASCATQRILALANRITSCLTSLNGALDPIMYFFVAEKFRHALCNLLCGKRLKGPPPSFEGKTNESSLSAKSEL

[3] = exposure to air and light; cited from earlier work

Row | less potent as compared with RA-II-150 (GPR17 [1]; FIG. 2, forskolin-stimulated cAMP production) [fold] | inhibition of forskolin stimulated adenylylcyclase activity (GPR17 [1]; GPR17 CHO cells, after 5-ALA addition) | activation of GPR17 (GPR17 [1]) | SMILES | amounts needed in the assays (GPR17 [2]) | chemical stability [3]
1 | 10.000 | GPR17-independent inhibition | confirm the activation | NCC(=O)CCC(=O)O [5-ALA, 5 amino levulinic acid] | three digit micromolar range | –
2 | – | – | failed | NCc1[nH]cc(CCC(=O)O)c1CC(=O)O [PBG, porphobilinogen] | mM range | rapidly decomposes after exposure to air and light
